Converted amounts (≈) assume the structure as drawn.
Legend:
CYP2C9 = CYP2C9 (Homo sapiens, UniProt P11712); assay: CYP Inhibition; conditions: human
Procedure: (§1) The working solutions of the test compounds and the standard inhibitors were prepared in DMSO (100× final concentration). 20 ul of substrate solution (5 in 1 cocktail) was added to the wells followed by 2 ul test compound solution was added. 158 ul of human liver microsome (HLM) was added to all the wells of the incubated plate and warmed to 37° C. for 10 mins. 20 ul of NADPH cofactor solution was then added to all the wells of incubated plate and incubated at 37° C. for 10 mins. At the time point the reaction was quenched by adding 400 uL of cold stop solution. The samples were centrifuged at 4000 rpm for 20 mins to precipitate protein. 100 ul supernatant was diluted with 100 ul of ultra pure water and analyzed using LCMS.

C. albicans SN250 = assay: MIC; type: cell-based, Candida albicans
[1] = system: C. albicans SN250, C. albicans, C. krusei, C. glabrata, C. tropicalis, A. fumigatus 91, 1163, 1100; assay: Average MIC over the tested strains; type: cell-based; conditions: for MIC: average over the 8 listed strains
human erythrocytes = assay: MHC hemolysis assay; type: cell-based; conditions: hemolysis, human erythrocytes, 37° C. 2 hours
Procedure: MHC (FIG. 21B): The protocol for the hemolysis assay was adapted from the report of Paquet and coworkers (Chem. Eur. J. 2008, 14, 2465-2481). Whole human blood (sodium heparin) was purchased from Bioreclamation LLC (Westbury, N.Y.) and stored at 4° C. and used within two days of receipt. To a 2.0 mL eppendorf tube, 1 mL of whole human blood was added and centrifuged at 10,000 g for 2 minutes. The supernatant was removed and the erythrocyte pellet was washed with 1 mL of sterile saline and centrifuged at 10,000 g for 2 minutes. The saline wash was repeated for a total of three washes. The erythrocyte pellet was suspended in 1 mL of RBC buffer (10 mM NaH2PO4, 150 mM NaCl, 1 mM MgCl2, pH 7.4) to form the erythrocyte stock suspension.
Compounds were prepared as >15 mM stock solutions in DMSO and serially diluted to the following concentrations with DMSO: 7689, 5126, 2563, 2050, 1538, 1025, 769, 513, 384, 256, 205, 154, 103, 77, 51, 26 μM. To a 0.2 mL PCR tube, 24 μL of RBC buffer and 1 μL of compound stock solution were added, which gave final concentrations of […]. Positive and negative controls were prepared by adding 1 μL of DMSO to MilliQ water or RBC buffer, respectively to 0.2 mL PCR tube. To each PCR tube, 0.63 μL of the erythrocyte stock suspension was added and mixed by inversion. The samples were incubated at 37° C. for 2 hours. The samples were mixed by inversion and centrifuged at 10,000 g for 2 minutes. 15 μL of the supernatant from each sample was added to a 384-well place. Absorbances were read at 540 nm using a Biotek H1 Synergy Hybrid Reader (Wanooski, Vt.). Experiments were performed in triplicate and the reported MHC represents an average of three experiments.

[2] = UV-Vis sterol binding assay
Procedure: However, an alternative method was developed for reproducible formation of homogenous AmB and C2′epiAmB sterol sponge aggregates in vitro. Using these preparations, a quantitative UV-Vis and Principle Component (PCA) based assay for determining the apparent KDs for the binding of AmB and C2′epiAmB to ergosterol and cholesterol (FIGS. 5A-5D) was developed.
UV-Vis Binding Assay (FIG. 21A): The protocol for the sterol binding assay (UV-Vis) was developed in our lab. Compounds were dissolved in DMSO at a final concentration of 1 mM. Sterol were first dissolved in CHCl3 (>200 mM) and then diluted to 1 mM concentration with DMSO. To synthesize the complex 1 ul of compound solution was taken in a clean eppendorf tube (2 ml) and sterol solution (volume depends on the stoichiometry) was added to it and the volume was made up to 20 ul with DMSO. 0.98 ml of PBS buffer was added to the Eppendorf tube and mixed properly. The absorbance of the solution was measured after 30 mins of incubation.

[3] = isothermal titration calorimetry (ITC) sterol binding; conditions: for Cholesterol binding by ITC: within the detection limits of ITC
Description: (§2) This key discovery opened a path to the rational development of a non-toxic AmB variant. To probe its predicted role in sterol binding, the hydroxyl group was synthetically deleted at the C2′ position on the mycosamine appendage. […] Consistent with the sterol sponge model, this derivative retained good activity against yeast but, most importantly, was nontoxic to human red blood cells and primary (hREC) (FIG. 2B).
(§3) A practical 11-step synthesis of C2′epiAmB using a frontier site-selective acylation method was developed (FIG. 4). Wilcock, B. C. et al., Nat Chem 2012, 4 (12), 996-1003; Uno, B. E. A synthesis enabled understanding of Amphotericin B leading to derivatives with improved therapeutic indices. University of Illinois at Urbana-Champaign, 2014. The sterol binding and cell killing activities was then determined.

rats = assay: IV toxicity in rats (BUN, ALT/AST, mortality, Cmax); type: in vivo; conditions: IV 2, 10, and 17.5 mg/kg (the highest dose tested)
Procedure: >100 mg of C2′epiAmB was prepared, formulated it as the corresponding deoxycholate complex, and evaluated this derivative head-to-head with AmB-deoxycholate for toxicity and efficacy in animal models.

[4] = system: A. fumigatus (AF293, A1163, ATC204305, AF91); type: cell-based
[5] = system: 40 Aspergillus clinical isolates, including azole-resistant A. fumigatus, A. flavus, and A. terreus; assay: Antifungal testing against 40 Aspergillus clinical isolates (Fungus Testing Laboratory); type: cell-based
C. albicans [6] = assay: Murine model of invasive candidiasis, neutropenic ICR/Swiss mice; type: in vivo; conditions: single IP injection, deoxycholate complex, 16 mg/kg dose
Description: Andes, D. et al., Antimicrobial agents and chemotherapy 2001, 45 (3), 922-6. In fact, the PD parameter that best correlates with outcome is Cmax-/MIC. The same was subsequently observed in a pulmonary model of invasive aspergillosis. Wiederhold, N. P. et al., Antimicrobial agents and chemotherapy 2006, 50 (2), 469-73.

[7] = system: human red blood cells and primary hREC; assay: Toxicity to human cells; type: cell-based
Description: as §2, §3

CYP2D6 = CYP2D6 (Homo sapiens, UniProt P10635); assay: CYP Inhibition; conditions: human
Procedure: as §1

C. albicans [8] = assay: MIC; type: cell-based
C. krusei = assay: MIC; type: cell-based
C. glabrata = assay: MIC; type: cell-based
C. tropicalis = assay: MIC; type: cell-based
A. fumigatus 91 = assay: MIC; type: cell-based
A. fumigatus 1163 = assay: MIC; type: cell-based
A. fumigatus 1100 = assay: MIC; type: cell-based

CYP2D6, sequence (P10635 whole entry): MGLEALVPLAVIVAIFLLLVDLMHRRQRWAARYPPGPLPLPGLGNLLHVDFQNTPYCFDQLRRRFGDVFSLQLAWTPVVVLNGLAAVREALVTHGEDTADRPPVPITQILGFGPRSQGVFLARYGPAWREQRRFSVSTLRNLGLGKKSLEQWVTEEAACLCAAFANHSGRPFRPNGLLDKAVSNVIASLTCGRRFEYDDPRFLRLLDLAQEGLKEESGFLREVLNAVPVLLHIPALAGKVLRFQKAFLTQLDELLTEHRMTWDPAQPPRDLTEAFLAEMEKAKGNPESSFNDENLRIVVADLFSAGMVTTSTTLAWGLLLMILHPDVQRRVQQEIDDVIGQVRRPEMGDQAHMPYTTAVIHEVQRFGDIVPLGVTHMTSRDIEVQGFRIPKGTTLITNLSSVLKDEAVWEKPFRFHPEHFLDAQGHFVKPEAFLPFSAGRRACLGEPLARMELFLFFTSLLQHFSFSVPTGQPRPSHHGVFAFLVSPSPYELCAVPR
CYP2C9, sequence (P11712 whole entry): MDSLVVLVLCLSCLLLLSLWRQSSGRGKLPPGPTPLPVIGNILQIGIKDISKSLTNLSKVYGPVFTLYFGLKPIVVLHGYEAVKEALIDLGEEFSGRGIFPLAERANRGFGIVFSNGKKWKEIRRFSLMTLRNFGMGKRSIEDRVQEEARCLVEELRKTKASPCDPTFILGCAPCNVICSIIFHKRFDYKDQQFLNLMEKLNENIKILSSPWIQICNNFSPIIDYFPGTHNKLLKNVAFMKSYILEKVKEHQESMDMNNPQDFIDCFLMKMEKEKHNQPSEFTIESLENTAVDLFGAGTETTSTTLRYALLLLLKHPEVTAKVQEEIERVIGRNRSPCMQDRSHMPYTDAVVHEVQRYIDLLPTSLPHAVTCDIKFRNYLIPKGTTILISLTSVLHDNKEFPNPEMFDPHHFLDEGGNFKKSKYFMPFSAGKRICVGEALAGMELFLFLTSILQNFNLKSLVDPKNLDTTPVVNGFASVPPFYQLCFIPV

Nc1ccc(S(=O)(=O)Nc2ccnn2-c2ccccc2)cc1 [Sulfaphenazole, reference compound]
inhibition at 10 min, 3 µM (CYP2C9): 69.7%

C[C@@H]1[C@H](O)[C@@H](C)/C=C/C=C/C=C/C=C/C=C/C=C/C=C/[C@H](O[C@@H]2O[C@H](C)[C@@H](O)[C@H](N)[C@H]2O)C[C@@H]2O[C@](O)(C[C@@H](O)C[C@@H](O)[C@H](O)CC[C@@H](O)C[C@@H](O)CC(=O)O[C@H]1C)C[C@H](O)[C@H]2C(=O)O [C2′epiAmB, C2′epi-Amphotericin B]
MIC C. albicans SN250 (C. albicans SN250): 0.5 µM (≈ 0.462 µg/mL) | Average MIC ([1]; Table 13, C16 amides of C2’epiAmB): 9030 µM | MIC [1]: >6.844 µM | MHC (human erythrocytes): >500 µM | Cholesterol Binding [2]: No | Ergosterol binding by ITC [3]: bind ergosterol | Cholesterol binding by ITC [3]: not (detectably) cholesterol | BUN, ALT/AST and mortality, rats (rats): no elevations in BUN or ALT/AST and no mortality | Times less potent than AmB [4]: > 32 times | Times less potent than AmB [5]: 2-16 times | Fungal burden, murine invasive candidiasis (C. albicans [6]): outstanding reductions in fungal burden | Toxicity to human cells [7]: not human cells

C=C[C@H]1C[N@@]2CC[C@H]1C[C@@H]2[C@@H](O)c1ccnc2ccc(OC)cc12 [Quinidine, reference compound]
inhibition at 10 min, 3 µM (CYP2D6): 95.3%

CC1C=CC=CC=CC=CC=CC=CC=CC(OC2CC(N)C(O)C(C)O2)CC2OC(O)(CC(O)CC(O)C(O)CCC(O)CC(O)CC(=O)OC(C)C(C)C1O)CC(O)C2C(=O)O (centres unmarked) [C2′deOAmB, reference compound]
Ergosterol binding by ITC [3]: bind ergosterol | Cholesterol binding by ITC [3]: not cholesterol | Toxicity to human cells [7]: nontoxic

CC1C=CC=CC=CC=CC=CC=CC=CC(OC2OC(C)C(O)C(N)C2O)CC2OC(O)(CC(O)CC(O)C(O)CCC(O)CC(O)CC(=O)OC(C)C(C)C1O)CC(O)C2C(=O)NCCN (centres unmarked) [BC]
MIC C. albicans SN250 (C. albicans SN250): 0.5 µM (≈ 0.483 µg/mL) | MIC C. albicans (C. albicans [8]): 0.5 µM (≈ 0.483 µg/mL) | MIC C. krusei (C. krusei): 4 µM (≈ 3.86 µg/mL) | MIC C. glabrata (C. glabrata): 0.5 µM (≈ 0.483 µg/mL) | MIC C. tropicalis (C. tropicalis): 0.5 µM (≈ 0.483 µg/mL) | MIC A. fumigatus 91 (A. fumigatus 91): 4 µM (≈ 3.86 µg/mL) | MIC A. fumigatus 1163 (A. fumigatus 1163): 2 µM (≈ 1.93 µg/mL) | MIC A. fumigatus 1100 (A. fumigatus 1100): 2 µM (≈ 1.93 µg/mL) | MIC [1]: 1.750 µM | Average MIC for AmB analogue ([1]; value of the corresponding AmB analogue, not of the C2’epi compound): 0.563 μM | MHC (human erythrocytes): 250 µM | Cholesterol Binding [2]: Yes?

Reference: patent publication US20230016424A1, “HYBRID AMIDE DERIVATIVES OF AMPHOTERICIN B” (The Board of Trustees of the University of Illinois, priority 2019, published 2023)
